Source: patent US8772500B2, “TRPV3 modulators” (AbbVie Inc., priority 2011, dated 2014)

Legend:
[1] = In vitro rat microsomal stability assay; assay type: in vitro ADME, rat (Sprague-Dawley); conditions: Sprague-Dawley, rat, 0.5 h, 0.5 μM, pH 7.4
Method in brief: (§1)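 Rat (Sprague-Dawley) and human liver microsomes were incubated with test compound and NADPH at 37 °C. Time-zero samples also received NADPH.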

human TRPV3 = target: T1, human TRPV3 (Homo sapiens, UniProt Q8NET8); experiment: In vitro antagonism of recombinant human TRPV3 activation (FLIPR Tetra calcium assay, 2-APB as agonist); assay type: cell-based; conditions: HEK293 cells stably expressing human TRPV3; 2-APB 80 μM; range class; read-out: IC50 (reported range)
T1 construct: expressed in transfected cells
T1 sequence (Q8NET8 1-790): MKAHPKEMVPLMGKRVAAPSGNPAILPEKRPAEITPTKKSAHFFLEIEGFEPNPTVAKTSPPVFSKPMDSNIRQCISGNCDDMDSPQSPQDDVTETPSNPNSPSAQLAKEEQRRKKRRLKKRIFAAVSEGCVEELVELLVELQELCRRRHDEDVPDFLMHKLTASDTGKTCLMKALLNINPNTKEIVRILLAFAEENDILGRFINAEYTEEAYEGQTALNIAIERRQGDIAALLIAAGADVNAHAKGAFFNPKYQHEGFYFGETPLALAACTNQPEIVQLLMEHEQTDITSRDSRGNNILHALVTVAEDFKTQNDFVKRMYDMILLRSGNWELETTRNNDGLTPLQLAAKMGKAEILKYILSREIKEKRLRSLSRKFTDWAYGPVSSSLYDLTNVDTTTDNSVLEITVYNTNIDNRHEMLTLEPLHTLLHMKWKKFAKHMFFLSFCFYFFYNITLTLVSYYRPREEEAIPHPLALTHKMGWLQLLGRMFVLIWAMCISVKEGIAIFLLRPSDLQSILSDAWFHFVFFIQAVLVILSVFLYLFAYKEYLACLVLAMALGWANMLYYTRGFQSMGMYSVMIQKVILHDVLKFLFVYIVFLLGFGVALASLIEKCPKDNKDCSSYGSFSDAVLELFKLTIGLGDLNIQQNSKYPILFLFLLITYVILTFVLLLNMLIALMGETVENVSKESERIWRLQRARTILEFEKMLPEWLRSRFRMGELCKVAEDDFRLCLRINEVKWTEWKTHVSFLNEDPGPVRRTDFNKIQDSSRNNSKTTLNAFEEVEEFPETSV
Method in brief: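 HEK293 cells stably expressing human TRPV3, loaded with Calcium-4 dye for 90-120 min; compound added 3 min before 2-APB at 80 μM (its EC80). Fluorescence (max minus min) over 10 min expressed as % of maximal 2-APB response without antagonist; IC50 mostly averaged from n≧2 runs.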

[2] = In vitro human microsomal stability assay; assay type: in vitro ADME; conditions: human, 0.5 h, 0.5 μM, pH 7.4
Method in brief: as §1

| Compound | RAT MICROSOMAL STABILITY (% REMAINING AFTER 30 MINUTES) [1] | IC50 (human TRPV3) | HUMAN MICROSOMAL STABILITY (% REMAINING AFTER 30 MINUTES) [2] |
| --- | --- | --- | --- |
| OC1CC(c2ccc(Cl)c(Cl)c2)(C(O)c2ccccn2)C1 [Example 247, cis-3-(3,4-dichlorophenyl)-3-[(R)-hydroxy(pyridin-2-yl)methyl]cyclobutanol] | >85% | 1.1 to 5 µM | 62% |
| ON=C1CC(c2ccc(OC(F)(F)F)cc2)([C@H](O)c2ccccn2)C1 (stereo partly drawn) [Example 248, (S)-{3-(hydroxyimino)-1-[4-(trifluoromethoxy)phenyl]cyclobutyl}(pyridin-2-yl)methanol] | 29% | 1.1 to 5 µM | 70% |
| CON=C1CC(c2ccc(OC(F)(F)F)cc2)([C@H](O)c2ccccn2)C1 (stereo partly drawn) [Example 249, (S)-{3-(methoxyimino)-1-[4-(trifluoromethoxy)phenyl]cyclobutyl}(pyridin-2-yl)methanol] | 3.2% | 1.1 to 5 µM | 61% |
| C[C@]1(O)C[C@@](c2ccc(OC(F)(F)F)cc2)([C@@H](O)c2ccccn2)C1 [Example 250, cis-3-[(R)-hydroxy(pyridin-2-yl)methyl]-1-methyl-3-[4-(trifluoromethoxy)-phenyl]cyclobutanol] | 70% | 5.1 to 20 µM | 70% |
| Cc1ccccc1CC1(C(O)c2ccccn2)CCC1 (stereo not drawn) [Example 253, [1-(2-methylbenzyl)cyclobutyl](pyridin-2-yl)methanol] | 0.017% | 1.1 to 5 µM | 0.21% |
| OC(c1ccccn1)C1(Cc2cccc(F)c2)CCC1 (stereo not drawn) [Example 254, [1-(3-fluorobenzyl)cyclobutyl](pyridin-2-yl)methanol] | 0.57% | 1.1 to 5 µM | 1.1% |
| OC(c1ccccn1)C1(c2ccc(F)c(Cl)c2)CC2(C1)OCCO2 (stereo not drawn) [Example 255, [2-(3-chloro-4-fluorophenyl)-5,8-dioxaspiro[3.4]oct-2-yl](pyridin-2-yl)-methanol] | <0.01% | 5.1 to 20 µM | 54% |
| O=C1CC(c2ccc(F)c(Cl)c2)(C(O)c2ccccn2)C1 (stereo not drawn) [Example 258, 3-(3-chloro-4-fluorophenyl)-3-[hydroxy(pyridin-2-yl)methyl]cyclobutanone] | 53% | 5.1 to 20 µM | 70% |
| OC(c1ccccn1)C1(C2=CCC(F)(F)CC2)CCC1 (stereo not drawn) [Example 260, [1-(4,4-difluorocyclohex-1-en-1-yl)cyclobutyl](pyridin-2-yl)methanol] | <0.01% | 5.1 to 20 µM | 12% |
| OC(c1ccccn1)C1(C2=CCCC(C(F)(F)F)C2)CCC1 (stereo not drawn) [Example 261, pyridin-2-yl{1-[5-(trifluoromethyl)cyclohex-1-en-1-yl]cyclobutyl}methanol] | <0.01% | 1.1 to 5 µM | 0.01% |
| CC(C)(C)OC(=O)N1CCC(C2(C(O)c3ccccn3)CCC2)C1 (stereo not drawn) [Example 265, tert-butyl 3-{1-[hydroxy(pyridin-2-yl)methyl]cyclobutyl}pyrrolidine-1-carboxylate] | 0.059% | 5.1 to 20 µM | 43% |
| OC(c1ccccn1)C1(c2nc3ccccc3s2)CCC1 (stereo not drawn) [Example 266, [1-(1,3-benzothiazol-2-yl)cyclobutyl](pyridin-2-yl)methanol] | 0.14% | 1.1 to 5 µM | 46% |
| CN(C)N=C1CC(c2ccc(OC(F)(F)F)cc2)([C@H](O)c2ccccn2)C1 (stereo partly drawn) [Example 267, (S)-{3-(dimethylhydrazinylidene)-1-[4-(trifluoromethoxy)phenyl]-cyclobutyl}(pyridin-2-yl)methanol] | 10% | 1.1 to 5 µM | 64% |
| OC(c1ccccn1)C1(c2nc3ccccc3o2)CCC1 (stereo not drawn) [Example 271, [1-(1,3-benzoxazol-2-yl)cyclobutyl](pyridin-2-yl)methanol] | 8.6% | 1.1 to 5 µM | 62% |
| OC1CC(c2cccc(OC(F)(F)F)c2)(C(O)c2ccccn2)C1 [Example 272, cis-3-[(S)-hydroxy(pyridin-2-yl)methyl]-3-[3-(trifluoromethoxy)phenyl]-cyclobutanol] | 48% | 0.05 to 0.5 µM | 54% |
| OC1CC(c2cccc(OC(F)(F)F)c2)(C(O)c2ccccn2)C1 [Example 273, trans-3-[(S)-hydroxy(pyridin-2-yl)methyl]-3-[3-(trifluoromethoxy)phenyl]-cyclobutanol] | 65% | 0.05 to 0.5 µM | 42% |
| OC(c1ccccn1)C1(C2CCC(F)(F)CC2)CCC1 (stereo not drawn) [Example 274, [1-(4,4-difluorocyclohexyl)cyclobutyl](pyridin-2-yl)methanol] | 10% | 1.1 to 5 µM | 55% |
| Cn1c(C2(C(O)c3ccccn3)CCC2)nc2ccccc21 (stereo not drawn) [Example 275, [1-(1-methyl-1H-benzimidazol-2-yl)cyclobutyl](pyridin-2-yl)methanol] | 5.7% | 5.1 to 20 µM | 67% |
| OC1CC(c2ccc(F)c(Cl)c2)([C@H](O)c2ccccn2)C1 (stereo partly drawn) [Example 276, 3-(3-chloro-4-fluorophenyl)-3-[(S)-hydroxy(pyridin-2-yl)methyl]-cyclobutanol] | 73% | 0.05 to 0.5 µM | 72% |
| O=C1CC(c2cc(C(F)(F)F)ccn2)([C@H](O)c2ccccn2)C1 [Example 277, 3-[(S)-hydroxy(pyridin-2-yl)methyl]-3-[4-(trifluoromethyl)pyridin-2-yl]-cyclobutanone] | >85% | 1.1 to 5 µM | >85% |
| O=C1CC(c2cc(C(F)(F)F)ccn2)([C@@H](O)c2ccccn2)C1 [Example 278, 3-[(R)-hydroxy(pyridin-2-yl)methyl]-3-[4-(trifluoromethyl)pyridin-2-yl]-cyclobutanone] | >85% | 5.1 to 20 µM | 83% |
| CC(C)(C)OC(=O)N1CCC(C2(C(O)c3ccccn3)CCC2)CC1 (stereo not drawn) [Example 279, tert-butyl 4-{1-[hydroxy(pyridin-2-yl)methyl]cyclobutyl}piperidine-1-carboxylate] | <0.01% | 5.1 to 20 µM | 22% |
| OC(c1ccccn1)C1(C2CCC(C(F)(F)F)CC2)CCC1 (stereo not drawn) [Example 280, pyridin-2-yl{1-[4-(trifluoromethyl)cyclohexyl]cyclobutyl}methanol] | <0.01% | 1.1 to 5 µM | 9.0% |
